From ChEMBL document CHEMBL1147179, “Synthesis and antimicrobial activity of some novel phenyl and benzimidazole substituted benzyl ethers” (2007) come the findings set out here.

One experiment relates to Pichia kudriavzevii. Nature of the experiment: Antifungal activity against Candida krusei ATCC 6258 by macro-broth dilution assay. The format is functional. (Dilution methods test growth across graded concentrations, often in twofold steps.)
A further experiment has as its system Candida albicans. Nature of the experiment: Antifungal activity against Candida albicans ATCC 10231 by macro-broth dilution assay. It is filed as functional.
In experiment [1] the test system is Staphylococcus aureus. Nature of the experiment: Antibacterial activity against Staphylococcus aureus ATCC 25923 by macro-broth dilution assay. It is filed as functional.
A further experiment has as its system Escherichia coli. Nature of the experiment: Antibacterial activity against Escherichia coli ATCC 25922 at 100 ug/ml by diffusion method. It is filed as functional, organism-based.
In experiment [2] the test system is Staphylococcus aureus. Nature of the experiment: Antibacterial activity against methicillin-resistant Staphylococcus aureus ATCC 43300 by macro-broth dilution assay. It is filed as functional.

Structures are written as SMILES. Values after ≈ are worked out from the molar mass of the structure shown. Active and inactive are the calls of the source. No cut-off for these calls is given here.

In general, MIC refers to the least concentration at which growth counts as inhibited. Read a low MIC as a more susceptible organism. Regarding `Brc1ccc(COC(Cn2cnc3ccccc32)c2ccccc2)cc1` (stereo unspecified), the MIC in the experiment with Pichia kudriavzevii worked out at 25 µg/mL (≈ 61.4 µM); against Candida albicans, 25 µg/mL (≈ 61.4 µM); against Staphylococcus aureus [1], 3.12 µg/mL (≈ 7.66 µM); against Staphylococcus aureus [2], 12.5 µg/mL (≈ 30.7 µM). Also, the result with Escherichia coli was inactive.
For `c1ccc(COC(Cn2cnc3ccccc32)c2ccccc2)cc1` (stereo unspecified), the MIC in the experiment on Pichia kudriavzevii, against Candida albicans, against Staphylococcus aureus [1] and in the experiment with Staphylococcus aureus [2] was 25 µg/mL (≈ 76.1 µM) in each case. The result with Escherichia coli was inactive.
With `Clc1ccc(COC(Cn2ccnc2)c2ccc(Cl)cc2Cl)c(Cl)c1` (stereo unspecified) [MICONAZOLE], the MIC with Pichia kudriavzevii was 0.78 µg/mL (≈ 1.87 µM); in the experiment on Candida albicans, 0.19 µg/mL (≈ 0.457 µM). Moreover, in the experiment with Escherichia coli, the result was inactive.
For `Clc1ccc(COC(Cn2cnc3ccccc32)c2ccccc2)cc1Cl` (stereo unspecified), the MIC stood at 25 µg/mL (≈ 62.9 µM) against Pichia kudriavzevii, 12.5 µg/mL (≈ 31.5 µM) in the experiment on Candida albicans, 3.12 µg/mL (≈ 7.85 µM) with Staphylococcus aureus [1] and 25 µg/mL (≈ 62.9 µM) in the experiment on Staphylococcus aureus [2]. Besides, the outcome in the experiment with Escherichia coli was inactive.
In the case of `Clc1cccc(Cl)c1COC(Cn1cnc2ccccc21)c1ccccc1` (stereo unspecified), the MIC stood at 12.5 µg/mL (≈ 31.5 µM) in the experiment with Pichia kudriavzevii, 12.5 µg/mL (≈ 31.5 µM) in the experiment with Candida albicans, 3.12 µg/mL (≈ 7.85 µM) in the experiment with Staphylococcus aureus [1] and 6.25 µg/mL (≈ 15.7 µM) in the experiment with Staphylococcus aureus [2]. Besides, the result in the experiment with Escherichia coli was inactive.
Turning to `Clc1ccc(COC(Cn2cnc3ccccc32)c2ccccc2)c(Cl)c1` (stereo unspecified), the MIC against Pichia kudriavzevii was determined as 25 µg/mL (≈ 62.9 µM); in the experiment with Candida albicans it was 25 µg/mL (≈ 62.9 µM); against Staphylococcus aureus [1] it was 3.12 µg/mL (≈ 7.85 µM); in the experiment with Staphylococcus aureus [2], 12.5 µg/mL (≈ 31.5 µM). Moreover, the result in the experiment with Escherichia coli was inactive.
Regarding `Clc1ccc(Cl)c(COC(Cn2cnc3ccccc32)c2ccccc2)c1` (stereo unspecified), the result in the experiment on Escherichia coli was inactive.
In the case of `Clc1ccc(COC(Cn2cnc3ccccc32)c2ccccc2)cc1` (stereo unspecified), the MIC was found to be 25 µg/mL (≈ 68.9 µM) with Pichia kudriavzevii, 25 µg/mL (≈ 68.9 µM) in the experiment with Candida albicans, 3.12 µg/mL (≈ 8.6 µM) against Staphylococcus aureus [1] and 12.5 µg/mL (≈ 34.4 µM) with Staphylococcus aureus [2]. For the same compound, the result in the experiment with Escherichia coli was inactive.
Consider `Fc1ccc(COC(Cn2cnc3ccccc32)c2ccccc2)cc1` (stereo unspecified), for which the MIC with Pichia kudriavzevii was 25 µg/mL (≈ 72.2 µM); in the experiment with Candida albicans, 25 µg/mL (≈ 72.2 µM); with Staphylococcus aureus [1], 12.5 µg/mL (≈ 36.1 µM); in the experiment on Staphylococcus aureus [2] it was 25 µg/mL (≈ 72.2 µM). Moreover, the result in the experiment with Escherichia coli was inactive.
Turning to `O=C(O)c1cn(C2CC2)c2cc(N3CCNCC3)c(F)cc2c1=O`, in the experiment with Escherichia coli, the result was inactive.
Take `FC(F)(F)c1ccc(COC(Cn2cnc3ccccc32)c2ccccc2)cc1` (stereo unspecified): the minimal inhibitory concentration (MIC) against Pichia kudriavzevii was 12.5 µg/mL (≈ 31.5 µM); with Candida albicans it was 25 µg/mL (≈ 63.1 µM); against Staphylococcus aureus [1], 6.25 µg/mL (≈ 15.8 µM); against Staphylococcus aureus [2], 12.5 µg/mL (≈ 31.5 µM). Moreover, the outcome in the experiment with Escherichia coli was inactive.
As to `CC1(C)S[C@@H]2[C@H](NC(=O)[C@H](N)c3ccccc3)C(=O)N2[C@H]1C(=O)O` [AMPICILLIN], the MIC against Staphylococcus aureus [1] worked out at 0.78 µg/mL (≈ 2.23 µM); in the experiment with Staphylococcus aureus [2] it was 25 µg/mL (≈ 71.5 µM). For the same compound, the outcome with Escherichia coli was inactive.
Take `OC(Cn1cncn1)(Cn1cncn1)c1ccc(F)cc1F` [FLUCONAZOLE]: the MIC is 25 µg/mL (≈ 81.6 µM) with Pichia kudriavzevii and 0.78 µg/mL (≈ 2.55 µM) with Candida albicans. Moreover, the outcome in the experiment with Escherichia coli was inactive.
